Test results: the supplement of paper PMC11061612

How the values were obtained:
Test in all cases: combination Emax (second highest fraction inhibited in the dose matrix, 72 h); higher = more inhibition; extreme values may be limits of the assay
[1] = system: SUP-HD1 (Hodgkin's Lymphoma)
Method in brief: (§1)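 Cell lines in DMEM/F12 or RPMI with 10% FBS were plated in 1536-well plates, held 24 hours at 37°C, 5% CO2, then given two-drug dose matrices for 72 hours (DMSO typically 0.2%). Viability was read by CellTiter-Glo 2.0 luminescence and scaled as inhibition from 0 (vehicle wells) to 1 (blank wells). Combination Emax is the second-highest inhibition in the matrix; Bliss excess is observed combination effect minus expected EA + EB − EA·EB, EA and EB being single-agent effects.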

[2] = system: BC-1 (B-Cell Non-Hodgkin's Lymphoma)
Method in brief: as §1

[3] = system: IGROV-1 (Ovarian Carcinoma)
Method in brief: as §1

[4] = system: JURL-MK1 (Chronic Myelogenous Leukemia)
Method in brief: as §1

[5] = system: NCI-H1944 (Lung Adenocarcinoma)
Method in brief: as §1

[6] = system: SBC-3 (Small Cell Lung Carcinoma)
Method in brief: as §1

[7] = system: OVKATE (Ovarian Carcinoma)
Method in brief: as §1

[8] = system: ATN-1 (T-Lymphoblastic Leukemia)
Method in brief: as §1

A375 (Melanoma) = system: A375 (Melanoma)
Method in brief: as §1

SK-MEL-24 (Melanoma) = system: SK-MEL-24 (Melanoma)
Method in brief: as §1

[9] = system: TK (B-Cell Non-Hodgkin's Lymphoma)
Method in brief: as §1

[10] = system: NCI-H1648 (Lung Adenocarcinoma)
Method in brief: as §1

[11] = system: NCI-H1975 (Lung Adenocarcinoma)
Method in brief: as §1

[12] = system: GRANTA-519 (B-Cell Non-Hodgkin's Lymphoma)
Method in brief: as §1

HT-144 (Melanoma) = system: HT-144 (Melanoma)
Method in brief: as §1

[13] = system: OCI-M1 (Acute Myeloid Leukemia)
Method in brief: as §1

[14] = system: SNU-1 (Gastric Carcinoma)
Method in brief: as §1

GCIY (Gastric Carcinoma) = system: GCIY (Gastric Carcinoma)
Method in brief: as §1

[15] = system: Daudi (Burkitt's Lymphoma)
Method in brief: as §1

[16] = system: NTERA-2-cl-D1 (Other Solid Carcinomas)
Method in brief: as §1

Compound: Cc1cc2ncnn2cc1Nc1ncc2c(n1)n(C1CCOCC1)c(=O)n2C [AZD7648] + CCN(CCO)CCCOc1ccc2c(Nc3cc(CC(=O)Nc4cccc(F)c4)[nH]n3)ncnc2c1 [AZD2811] (first compound max 10 µM, 7x7, partner max 1 µM)
- combination Emax [1]: 0.434
- combination Emax [2]: 0.871
- combination Emax [3]: 0.566
- combination Emax [4]: 0.601
- combination Emax [5]: 0.415
- combination Emax [6]: 0.564
- combination Emax [7]: 0.27
- combination Emax [8]: 0.832
- combination Emax (A375 (Melanoma)): 0.492
- combination Emax (SK-MEL-24 (Melanoma)): 0.373
- combination Emax [9]: 0.281
- combination Emax [10]: 0.547
- combination Emax [11]: 0.384
- combination Emax [12]: 0.414
- combination Emax (HT-144 (Melanoma)): 0.327
- combination Emax [13]: 0.237
- combination Emax [14]: 0.239
- combination Emax (GCIY (Gastric Carcinoma)): 0.49
- combination Emax [15]: 0.508
- combination Emax [16]: 0.554

Compound: Cc1cc2ncnn2cc1Nc1ncc2c(n1)n(C1CCOCC1)c(=O)n2C [AZD7648] + CN(C)CCCOc1ccc(-c2ccc3ncc4c(c3c2)n(C2CCOCC2)c(=O)n4C)cn1 [AZD0156] (first compound max 10 µM, 7x7, partner max 1 µM)
- combination Emax [1]: 0.199
- combination Emax [2]: 0.634
- combination Emax [3]: 0.584
- combination Emax [4]: 0.406
- combination Emax [5]: 0.29
- combination Emax [6]: 0.482
- combination Emax [7]: 0.35
- combination Emax [8]: 0.481
- combination Emax (A375 (Melanoma)): 0.269
- combination Emax (SK-MEL-24 (Melanoma)): 0.28
- combination Emax [9]: 0.204
- combination Emax [10]: 0.508
- combination Emax [11]: 0.398
- combination Emax [12]: 0.249
- combination Emax (HT-144 (Melanoma)): 0.218
- combination Emax [13]: 0.173
- combination Emax [14]: 0.193
- combination Emax (GCIY (Gastric Carcinoma)): 0.437
- combination Emax [15]: 0.444
- combination Emax [16]: 0.484

Compound: Cc1cc2ncnn2cc1Nc1ncc2c(n1)n(C1CCOCC1)c(=O)n2C [AZD7648] + C[C@@H]1COCCN1C2=NC(=NC(=C2)C3(CC3)[S@](=N)(=O)C)C4=C5C=CNC5=NC=C4 [AZD6738] (first compound max 10 µM, 7x7, partner max 10 µM)
- combination Emax [1]: 0.751
- combination Emax [2]: 0.941
- combination Emax [3]: 0.66
- combination Emax [4]: 1
- combination Emax [5]: 0.77
- combination Emax [6]: 0.71
- combination Emax [7]: 0.377
- combination Emax [8]: 0.995
- combination Emax (A375 (Melanoma)): 0.687
- combination Emax (SK-MEL-24 (Melanoma)): 0.509
- combination Emax [9]: 0.91
- combination Emax [10]: 0.779
- combination Emax [11]: 0.423
- combination Emax [12]: 0.808
- combination Emax (HT-144 (Melanoma)): 0.753
- combination Emax [13]: 0.956
- combination Emax [14]: 0.788
- combination Emax (GCIY (Gastric Carcinoma)): 0.774
- combination Emax [15]: 0.826
- combination Emax [16]: 0.617

Compound: Cc1cc2ncnn2cc1Nc1ncc2c(n1)n(C1CCOCC1)c(=O)n2C [AZD7648] + O=C(c1cc(Cc2n[nH]c(=O)c3ccccc23)ccc1F)N1CCN(C(=O)C2CC2)CC1 [Olaparib] (first compound max 10 µM, 7x7, partner max 10 µM)
- combination Emax [1]: 0.465
- combination Emax [2]: 0.385
- combination Emax [3]: 0.598
- combination Emax [4]: 0.543
- combination Emax [5]: 0.246
- combination Emax [6]: 0.451
- combination Emax [7]: 0.148
- combination Emax [8]: 0.356
- combination Emax (A375 (Melanoma)): 0.234
- combination Emax (SK-MEL-24 (Melanoma)): 0.211
- combination Emax [9]: 0.26
- combination Emax [10]: 0.328
- combination Emax [11]: 0.389
- combination Emax [12]: 0.251
- combination Emax (HT-144 (Melanoma)): 0.232
- combination Emax [13]: 0.173
- combination Emax [14]: 0.446
- combination Emax (GCIY (Gastric Carcinoma)): 0.342
- combination Emax [15]: 0.446
- combination Emax [16]: 0.534

Compound: Cc1nc(Nc2ncc(C(=O)Nc3c(C)cccc3Cl)s2)cc(N2CCN(CCO)CC2)n1 [Dasatinib] + CC(=O)Nc1cccc(-n2c(=O)n(C3CC3)c(=O)c3c(Nc4ccc(I)cc4F)n(C)c(=O)c(C)c32)c1 [Trametinib] (first compound max 2 µM, 7x7, partner max 1 µM)
- combination Emax [1]: 0.202
- combination Emax [2]: 0.418
- combination Emax [3]: 0.956
- combination Emax [4]: 1
- combination Emax [5]: 0.65
- combination Emax [6]: 0.528
- combination Emax [7]: 0.484
- combination Emax [8]: 0.591
- combination Emax (A375 (Melanoma)): 0.794
- combination Emax (SK-MEL-24 (Melanoma)): 0.815
- combination Emax [9]: 0.145
- combination Emax [10]: 0.876
- combination Emax [11]: 0.662
- combination Emax [12]: 0.205
- combination Emax (HT-144 (Melanoma)): 0.703
- combination Emax [13]: 0.884
- combination Emax [14]: 0.475
- combination Emax (GCIY (Gastric Carcinoma)): 0.83
- combination Emax [15]: 0.635
- combination Emax [16]: 0.504

Compound: COc1cc2c(cc1OCCCCCOc1cc3c(cc1OC)C(=O)N1C=C(C)C[C@H]1C=N3)N=C[C@@H]1CC(C)=CN1C2=O [SG3199] + O=C(c1cc(Cc2n[nH]c(=O)c3ccccc23)ccc1F)N1CCN(C(=O)C2CC2)CC1 [Olaparib] (first compound max 0.001 µM, 7x7, partner max 10 µM)
- combination Emax [1]: 0.456
- combination Emax [2]: 0.181
- combination Emax [3]: 0.358
- combination Emax [4]: 0.418
- combination Emax [5]: 0.192
- combination Emax [6]: 0.478
- combination Emax [7]: 0.0519
- combination Emax [8]: 0.0857
- combination Emax (A375 (Melanoma)): 0.209
- combination Emax (SK-MEL-24 (Melanoma)): 0.129
- combination Emax [9]: 0.184
- combination Emax [10]: 0.129
- combination Emax [11]: 0.172
- combination Emax [12]: 0.324
- combination Emax (HT-144 (Melanoma)): 0.232
- combination Emax [13]: 0.249
- combination Emax [14]: 0.353
- combination Emax (GCIY (Gastric Carcinoma)): 0.258
- combination Emax [15]: 0.245
- combination Emax [16]: 0.457

Compound: C[C@@H](c1ccc2nccn2c1)n1nnc2ncc(-c3cnn(C)c3)nc21 [Savolitinib] + CC1(C)CCC(CN2CCN(c3ccc(C(=O)NS(=O)(=O)c4ccc(NCC5CCOCC5)c([N+](=O)[O-])c4)c(Oc4cnc5[nH]ccc5c4)c3)CC2)=C(c2ccc(Cl)cc2)C1 [Venetoclax] (first compound max 1 µM, 7x7, partner max 1 µM)
- combination Emax [1]: 0.792
- combination Emax [2]: 0.209
- combination Emax [3]: 0.152
- combination Emax [4]: 0.127
- combination Emax [5]: 0.128
- combination Emax [6]: 0.118
- combination Emax [7]: 0.155
- combination Emax [8]: 0.186
- combination Emax (A375 (Melanoma)): 0.142
- combination Emax (SK-MEL-24 (Melanoma)): 0.154
- combination Emax [9]: 0.907
- combination Emax [10]: 0.153
- combination Emax [11]: 0.126
- combination Emax [12]: 0.306
- combination Emax (HT-144 (Melanoma)): 0.117
- combination Emax [13]: 0.102
- combination Emax [14]: 0.188
- combination Emax (GCIY (Gastric Carcinoma)): 0.213
- combination Emax [15]: 0.109
- combination Emax [16]: 0.257

Compound: C[C@@H](c1ccc2nccn2c1)n1nnc2ncc(-c3cnn(C)c3)nc21 [Savolitinib] + Cc1c2c(nn1C)CSCc1cc(n(C)n1)CSc1cc(c3ccccc3c1)OCCCc1c(C(=O)O)n(C)c3c-2c(Cl)ccc13 [AZD5991] (first compound max 1 µM, 7x7, partner max 1 µM)
- combination Emax [1]: 0.62
- combination Emax [2]: 1
- combination Emax [3]: 0.157
- combination Emax [4]: 0.129
- combination Emax [5]: 0.184
- combination Emax [6]: 0.135
- combination Emax [7]: 0.144
- combination Emax [8]: 0.904
- combination Emax (A375 (Melanoma)): 0.182
- combination Emax (SK-MEL-24 (Melanoma)): 0.225
- combination Emax [9]: 0.129
- combination Emax [10]: 0.453
- combination Emax [11]: 0.146
- combination Emax [12]: 0.141
- combination Emax (HT-144 (Melanoma)): 0.833
- combination Emax [13]: 0.186
- combination Emax [14]: 0.454
- combination Emax (GCIY (Gastric Carcinoma)): 0.176
- combination Emax [15]: 0.196
- combination Emax [16]: 0.422
